Entries after “also recorded” stand apart in the source; their conditions may differ.
Tests used:
[1] = test system: E. coli RecO; assay: ITC of SSB-Ct peptides binding to RecO; parameters: species or system Escherichia coli; details: 25°C
Procedure: (§1) The concentrations were determined thereafter.

[2] = test system: DNA Pol III (χ); assay: ITC of SSB-Ct peptides binding to the χ subunit; parameters: species or system Escherichia coli; details: pH 8.0, 50 mM NaCl, 25°C; N fixed to 1
Procedure: as §1

[3] = test system: PriC; assay: ITC of SSB-Ct peptides binding to PriC; parameters: species or system Escherichia coli; details: 25°C
Procedure: as §1

[4] = test system: PriA; details: pH 8.0, 50 mM NaCl, 25°C; N fixed to 1
Procedure: Isothermal titration calorimetry (ITC) experiments were performed using a VP-ITC titration microcalorimeter (Malvern Panalytical, Malvern, UK) ([68]). All proteins and oligonucleotides were dialyzed extensively against the indicated buffer and cleared by centrifugation at 14 000 rpm for 15 min at 4°C. The concentrations were determined thereafter. For experiments with the SSB-Ct peptides and SIPs, 40–50 μM peptides were titrated into 1–2 μM SIPs in Buffer BTP at pH 8.0 and 50 mM NaCl. For experiments with the full-length SSB and its deletion mutants and SIPs, SSB tetramer (8–10 μM) was titrated into SIP (1 μM) in Buffer BTP at pH 7.0 and 200 mM NaCl. The heats of dilution were obtained by blank titrations in which the titrant species is titrated into the buffer, and corrections for heats of dilution were applied.
The raw data were analyzed to obtain titration curves by integrating each peak from the time of titrant addition until equilibration back to the baseline using ‘MicroCal Data Analysis’ software provided by the manufacturer. […] The concentration of the free ligand (X) was obtained by solving Equation (2).(2)
In Equations (1) and (2), and are the total concentrations of the ligand and macromolecule, respectively, in the calorimetric cell after ith injection and X is the free ligand concentration. Nonlinear least-squares fitting of the data was performed using the same software. […]

[5] = test system: PriA; details: previous study; cited from earlier work
Procedure: All binding reactions were performed under identical solution conditions, although additional experiments were performed at a lower [NaCl] for PriC as indicated, ...

[6] = test system: DNA Pol III (χ); details: previous study; cited from earlier work
Source text: When DNA is bound to the DBD, the acidic tip no longer interacts with the DBD and thus is more available to interact with a SIP. This is supported by the observation that ΔH = −6.0 ± 0.1 kcal/mol for RecO binding to the SSBΔ120-166–(dT)70 complex, which should not contain contributions from the acidic tip-DBD intramolecular interactions.

[7] = test system: (dT)70; assay: ITC control of P65 peptide and (dT)70; type: binding; details: BTP pH 7.0, 20 mM NaCl, 25°C
Procedure: The concentrations were determined thereafter. […]
Figure S7. Results from various control ITC titrations of (a) SSB-A and RecO at 15°C and (b) 25°C, (c) SSB-A and c, (d) P65 and (dT)70, (e) (dT)70 and SSB-A, and (f) (dT)70 and wtSSB. (a) SSB-A (10 µM), a homo-tetrameric SSB variant containing an additional six amino acids, TGASGT, at the C-terminus of each subunit, was titrated into […]
(5.9 µM) was titrated into c (1 µM) in buffer T (10 mM Tris-HCl, pH 8.1, 200 mM NaCl, […]
0.1 mM EDTA) at 25° C. […] (d) dT70 (60 µM) was […]
titrated into P65 (2 µM) in buffer BTP (pH 7.0, 20 mM NaCl) at 25° C. P65, the full-length […]
(dT)70. (e) (dT)70 (15 µM) was titrated into SSB-A (1 µM) in buffer T at 25° C. SSB-A (also on this page, place not known: 15°C 25°C. 25°C. 25°C. 25°C. 2.00 kcal mol-1 of injectant kcal mol-1 of injectant [SSB-A]tot/[RecO]tot kcal mol-1 of injectant [SSB-A]tot/[c]tot (f)(d))

Molecule	K ([1]; BTP pH 7, 200 mM NaCl)	K (equilibrium binding constant) ([1]; pH 8.0, 50 mM NaCl, N fixed to 1)	K (equilibrium binding constant) [2]	K (equilibrium binding constant) ([3]; pH 8.0, 10 mM NaCl, N fixed to 1)	binding detected by ITC ([3]; pH 8.0, 50 mM NaCl)	K (equilibrium binding constant) [4]	binding to PriA [5]	binding to χ [6]	binding to (dT)70 by ITC [7]
P15: SSB-Ct peptide, C-terminal 15 amino acids of E. coli SSB, contains acidic tip, no PXXP motifs (PSNEPPMDFDDDIPF)	(1.1 ± 0.1) × 10^6 M^−1	(1.2 ± 0.3) × 10^7 M^−1	(3.0 ± 0.1) × 10^5 M^−1	(1.6 ± 0.1) × 10^6 M^−1	undetectable; also recorded: showed no binding	(2.6 ± 0.1) × 10^5 M^−1	same affinity as P9	same affinity as P9	–
P65: SSB-Ct peptide, C-terminal 65 amino acids of SSB; acidic tip and the full IDL (peptide) peptide: GGRQGGGAPAGGNIGGGQPQGGWGQPQQPQGGNQFSGGAQSRPQQSAPAAPSNEPPMDFDDDIPF	–	–	–	–	–	–	–	–	does not interact; also recorded: no detectable interaction

Source: paper PMC7145534, “Are the intrinsically disordered linkers involved in SSB binding to accessory proteins?” (Nucleic Acids Research, 2019)
